{"source": "patent US12616203B2", "about": "“Use of 3-isoxazolidinones compounds as selective herbicides” (FMC Corporation, priority 2014, dated 2026)", "key": {"[1]": {"tested_on": "weeds; corn, wheat, cotton, cowpea, and bush bean", "test": "Ex42 PRE greenhouse", "assay_type": "in vivo", "details": "crop and rate in the words", "source_text": "(§1) Thereafter flats were watered and fertilized routinely."}, "weeds [2]": {"tested_on": "weeds", "test": "Ex13 PRE greenhouse", "assay_type": "in vivo", "details": "28 DAT, weed and rate in the words", "source_text": "Pyroxasulfone (KIH-485, 85%) at 74.3 g ai/ha, pendimethalin (Prowl 3.3EC, 37.4%) at 1200 g ai/ha, or a premix of chlorsulfuron plus metsulfuron-methyl (Report Extra, 75%) at 15.8 g ai/ha were applied as commercial standards. […] Treatments were replicated 3 times and flats were watered after planting before the treatment and lightly watered after treatment application. Thereafter flats were watered and fertilized routinely."}, "weeds [3]": {"tested_on": "weeds", "test": "Ex22 PRE greenhouse", "assay_type": "in vivo", "details": "28 DAT, weed and rate in the words", "source_text": "2,4 DC (36.7% CS) was applied PRE at 0, 125, 170, 210, or 250 g ai/ha alone or as a tank-mix with S-metolachlor (Dual II Magnum®, 82.4%) at 0, 267, 534, 801, or 1070 g ai/ha. Pyroxasulfone plus fluthiacet-methyl (Anthem™, 23.3%) applied at 169.9 g ai/ha, and the tank-mix of mesotrione (Callisto®, 40%) at 123 g plus S-metolachlor (Dual II Magnum®, 82.4%) at 1252 g were included as a standards for comparison.\nThereafter flats were watered and fertilized routinely. Each treatment was replicated three times."}, "weeds; canola, and wheat": {"tested_on": "weeds; canola, and wheat", "test": "Ex32 PRE greenhouse", "assay_type": "in vivo", "details": "rate in the words", "source_text": "(§2) Treatments were applied at the time of planting to Italian ryegrass, green foxtail, littleseed canarygrass, wild oat, quackgrass, dandelion, common chickweed, white clover, yellow nutsedge, redroot pigweed, field bindweed, canola, and wheat. […] Flats were watered and fertilized routinely after treatment application."}, "Wild oat": {"tested_on": "Wild oat", "test": "Ex32 PRE 2,4-DC + pyroxasulfone + sulfentrazone, % control 28 DAT, Colby", "assay_type": "in vivo, Avena fatua", "source_text": "as §2"}, "Common lambsquarters": {"tested_on": "Common lambsquarters", "test": "Ex34 PRE 2,4-DC + napropamide, % control, Colby", "assay_type": "in vivo, Chenopodium album", "details": "28 DAT", "source_text": "as §1"}, "jimsonweed": {"tested_on": "jimsonweed", "test": "Ex15 PRE 2,4-DC + S-metolachlor, % control 28 DAT, Colby", "assay_type": "in vivo, Datura stramonium", "source_text": "(§3) The weeds tested in this study were redroot pigweed (Amaranthus retroflexus, AMARE), Jimsonweed (Datura stramonium, DATST), black nightshade (Solanum nigrum, SOLNI), large crabgrass (Digitaria sanguinalis, DIGSA), Pennsylvania smartweed (Polygonum pensylvanicum, POLPY), horseweed (Conyza canadensis, ERICA), wild buckwheat (Polygonum convolvulus, POLCO). The crop tested was Corn (var. Viking).\n(§4) To determine PRE efficacy and corn injury, five rates of each 2,4 DC (36.7% CS) and S-metolachlor (Dual II Magnum®, 82.4%) were applied either alone or as tank-mix. 2,4 DC was applied at 0, 125, 170, 210, or 250 g ai/ha and S-metolachlor was applied at 0, 267, 534, 801, or 1070 g ai/ha. Additional treatments included application of premix of pyroxasulfone plus fluthiacet-methyl (Anthem™ 23.3%) at 169.9 g ai/ha and tank-mix of mesotrione (Callisto®, 40%) at 123 g plus S-metolachlor at 1252 g. Treatments were applied just after the planting of large crabgrass, Jimsonweed, black nightshade, redroot pigweed, Pennsylvania smartweed, horseweed, wild buckwheat, and corn.\n(§5) Flats were watered and fertilized routinely after treatment application. Each treatment was replicated three times. […] Corn injury was rated for bleaching and stunting."}, "Blackgrass": {"tested_on": "Blackgrass", "test": "Ex34 PRE 2,4-DC + napropamide, % control, Colby", "assay_type": "in vivo, Alopecurus myosuroides", "details": "28 DAT", "source_text": "as §1"}, "Pennsylvania smartweed": {"tested_on": "Pennsylvania smartweed", "test": "Ex15 PRE 2,4-DC + S-metolachlor, % control 28 DAT, Colby", "assay_type": "in vivo, Polygonum pensylvanicum", "source_text": "as §3, §4, §5"}, "Italian ryegrass": {"tested_on": "Italian ryegrass", "test": "Ex36 POST 2,4-DC + metsulfuron-methyl, % control 28 DAT, Colby", "assay_type": "in vivo, Lolium perenne L. ssp. multiflorum", "source_text": "Crops screened were wheat and barley."}, "[4]": {"tested_on": "weeds; sweet corn, yellow corn, and sorghum", "test": "Ex31 PRE greenhouse", "assay_type": "in vivo", "details": "weed and rate in the words", "source_text": "Flats were watered and fertilized routinely after treatment application."}, "Common ragweed": {"tested_on": "Common ragweed", "test": "Ex16 PRE 2,4-DC + pyroxasulfone, % control 28 DAT, Colby", "assay_type": "in vivo, Ambrosia artemisiifolia", "source_text": "To determine PRE efficacy, five levels of 2,4 DC (36.7% CS) 0, 125, 170, 210, or 250 g ai/ha and five levels of pyroxasulfone (KIH485-85WG) 0, 50, 65, 80, or 95 g ai/ha were applied either alone or as tank-mix. Additional treatments consisted of premix of pyroxasulfone plus fluthiacet-methyl (Anthem™ 23.3%) at 169.9 g ai/ha, S-metolachlor (Dual II Magnum, 82.4%) at 1388 g, and tank-mix of mesotrione (Callisto, 40%) at 123 g plus S-metolachlor at 1252 g. […] Treatments were applied before the emergence of black nightshade, giant foxtail, green foxtail, yellow foxtail, large crabgrass, kochia, redroot pigweed, common ragweed, and barnyardgrass.\nFlats were watered and fertilized routinely after treatment application. Each treatment was replicated three times."}, "Sorghum": {"tested_on": "Sorghum", "test": "Ex46 PRE sorghum injury 7, 14, 21, 28 DAT", "details": "rate in the words", "procedure": "Treatments were applied to sorghum at the time of planting using Pennington soil. Each treatment was replicated four times. Soil was watered before and after application for herbicide activation. Plants were watered and fertilized routinely. […] Visual percent crop injury was recorded at 7, 14, 21, and 28 days after treatment using a scale of 0 (no injury) to 100 (complete plant death)."}, "Yellow nutsedge": {"tested_on": "Yellow nutsedge", "test": "Ex32 PRE 2,4-DC + pyroxasulfone + sulfentrazone, % control 28 DAT, Colby", "assay_type": "in vivo, Cyperus esculentus", "source_text": "as §2"}}, "data": [{"smiles": "CC1(C)CON(Cc2ccc(Cl)cc2Cl)C1=O", "note": "[2,4-DC, 2-(2,4-dichlorophenyl)methyl-4,4-dimethyl-3-isoxazolidinone]", "values": [{"measurement": "crop safety in words", "setting": "[1]", "result": "applied alone was safe at all rates on all crops at 14 DAT"}, {"measurement": "weed control in words", "setting": "weeds [2]", "result": "alone at all rates did not control most of the species"}, {"measurement": "weed control in words", "setting": "weeds [3]", "result": "applied alone controlled (≥85% injury) Johnsongrass at 210 g ai/ha, common lambsquarters at 250 g and goosegrass at all rates"}, {"measurement": "weed control / crop safety in words", "setting": "weeds; canola, and wheat", "result": "alone controlled Italian ryegrass and wild oat at 400 g; common chickweed was controlled at all rates; green foxtail was controlled at ≥100 g; littleseed canarygrass and redroot pigweed were controlled at 200 g"}, {"measurement": "X", "setting": "Wild oat; 2,4-DC alone 50 g ai/ha", "result": 28, "unit": "%"}, {"measurement": "X", "setting": "Wild oat; 2,4-DC alone 100 g ai/ha", "result": 28, "unit": "%"}, {"measurement": "X", "setting": "Wild oat; 2,4-DC alone 200 g ai/ha", "result": 67, "unit": "%"}, {"measurement": "X", "setting": "Common lambsquarters; 2,4-DC alone 31 g ai/ha", "result": 28, "unit": "%"}, {"measurement": "X", "setting": "Common lambsquarters; 2,4-DC alone 63 g ai/ha", "result": 43, "unit": "%"}, {"measurement": "X", "setting": "Common lambsquarters; 2,4-DC alone 125 g ai/ha", "result": 85, "unit": "%"}, {"measurement": "X", "setting": "Common lambsquarters; 2,4-DC alone 250 g ai/ha", "result": 91, "unit": "%"}, {"measurement": "X", "setting": "Common lambsquarters; 2,4-DC alone 375 g ai/ha", "result": 93, "unit": "%"}, {"measurement": "X", "setting": "jimsonweed; 2,4-DC alone 125 g ai/ha", "result": 37, "unit": "%"}, {"measurement": "X", "setting": "jimsonweed; 2,4-DC alone 170 g ai/ha", "result": 40, "unit": "%"}, {"measurement": "X", "setting": "jimsonweed; 2,4-DC alone 210 g ai/ha", "result": 48, "unit": "%"}, {"measurement": "X", "setting": "jimsonweed; 2,4-DC alone 250 g ai/ha", "result": 53, "unit": "%"}, {"measurement": "X", "setting": "Blackgrass; 2,4-DC alone 31 g ai/ha", "result": 10, "unit": "%"}, {"measurement": "X", "setting": "Blackgrass; 2,4-DC alone 63 g ai/ha", "result": 18, "unit": "%"}, {"measurement": "X", "setting": "Blackgrass; 2,4-DC alone 125 g ai/ha", "result": 84, "unit": "%"}, {"measurement": "X", "setting": "Blackgrass; 2,4-DC alone 250 g ai/ha", "result": 93, "unit": "%"}, {"measurement": "X", "setting": "Blackgrass; 2,4-DC alone 375 g ai/ha", "result": 97, "unit": "%"}, {"measurement": "X", "setting": "Pennsylvania smartweed; 2,4-DC alone 125 g ai/ha", "result": 38, "unit": "%"}, {"measurement": "X", "setting": "Pennsylvania smartweed; 2,4-DC alone 170 g ai/ha", "result": 67, "unit": "%"}, {"measurement": "X", "setting": "Pennsylvania smartweed; 2,4-DC alone 210 g ai/ha", "result": 80, "unit": "%"}, {"measurement": "X", "setting": "Pennsylvania smartweed; 2,4-DC alone 250 g ai/ha", "result": 78, "unit": "%"}, {"measurement": "X", "setting": "Italian ryegrass; 2,4-DC alone 50 g ai/ha", "result": 22, "unit": "%"}, {"measurement": "X", "setting": "Italian ryegrass; 2,4-DC alone 100 g ai/ha", "result": 18, "unit": "%"}, {"measurement": "X", "setting": "Italian ryegrass; 2,4-DC alone 200 g ai/ha", "result": 29, "unit": "%"}, {"measurement": "weed control in words", "setting": "[4]", "result": "alone did not control any weeds except barnyardgrass"}, {"measurement": "X", "setting": "Common ragweed; 2,4-DC alone 125 g ai/ha", "result": 33, "unit": "%"}, {"measurement": "X", "setting": "Common ragweed; 2,4-DC alone 170 g ai/ha", "result": 40, "unit": "%"}, {"measurement": "X", "setting": "Common ragweed; 2,4-DC alone 210 g ai/ha", "result": 40, "unit": "%"}, {"measurement": "X", "setting": "Common ragweed; 2,4-DC alone 250 g ai/ha", "result": 45, "unit": "%"}, {"measurement": "sorghum safety in words", "setting": "Sorghum", "result": "safe on sorghum at rates ranging from 31 to 125 g ai/ha irrespective of rating timings"}, {"measurement": "X", "setting": "Yellow nutsedge; 2,4-DC alone 50 g ai/ha", "result": 0, "unit": "%"}, {"measurement": "X", "setting": "Yellow nutsedge; 2,4-DC alone 100 g ai/ha", "result": 0, "unit": "%"}, {"measurement": "X", "setting": "Yellow nutsedge; 2,4-DC alone 200 g ai/ha", "result": 17, "unit": "%"}]}]}
